Where two headings read alike, the source gives them in different places.
Assay: Pharmacokinetics of ZA in pig serum after IV or SC infusion with or without rHuPH20 (LC-MS-MS, non-compartmental analysis)
Format: in vivo
Settings: female, Yorkshire, pig, serum, […]
Method: A pharmacokinetic study of zoledronic acid (ZA) co-administered with rHuPH20 in female Yorkshire swines was conducted. The primary objective of the study was to determine the bioavailability of zoledronic acid dosed via subcutaneous (SC) co-administration with human recombinant hyaluronidase PH20 (rHuPH20) and to compare the overall exposure to an equivalent IV dose.
Animals in Study Group 1 were dosed with 0.15 mg/kg ZA given via a 20-minute IV infusion. Animals in Study Groups 2 and 3 were dosed subcutaneously (SC) with 0.15 mg/kg ZA without and with rHuPH20, respectively, in different SC delivery volumes.
Following ZA dose administration, serial blood samples were collected via vascular access ports (VAPs) for serum preparation and determination of ZA concentrations. Blood collection times were at 1, 3, 5, 10, 15, 20, 30, 45, and 60 minutes, and at 1.5, 2, 3, 4, 6, 8, 10, 24, 48, and 72 hours post dose. Urine samples were also collected to compare excretion characteristics between IV and SC routes of administration. Collection times for urine were at 15 minutes before dosing (−15 min.), continuously from dose initiation to 2 hours post dose, and at 4, 6, 8, and 24 hours post dose thereafter.
Serum concentration of ZA was determined using a qualified LC-MS-MS assay after derivatization with diazomethane (Zhu, L S et al. (2006) Rapid Commun. Mass Spectrom. 20: 3421-3426; “Qualification Data of An LC-MS/MS Method for the Determination of Zoledronate in Porcine Serum”, MDS Pharma Services Study No. AA43671-01, Report Date 14 Sep. 2007). The assay range was from 2.0 to 400 ng/mL with a lower limit of quantitation (LLOQ) at 2.0 ng/mL. Urine concentration of ZA was determined by a similar well qualified LC-MS-MS method (“Qualification Data of An LC-MS/MS Method for the Determination of Zoledronate in Porcine Urine”, MDS Pharma Services Study No. AA43671-02, Report Date 14 Sep. 2007) with an assay LLOQ at 10 ng/mL.
Pharmacokinetic (PK) analyses of ZA serum concentration versus time data were conducted using WinNonlin v5.1 (Pharsight, Mountain View, Calif.). Non-compartmental analysis was used for derivation of primary and secondary pharmacokinetic (PK) parameters. AUC, Cmax, and Tmax were compared between dose routes, between co-administration with rHuPH20, and with dose of rHuPH20.

[1] = intravenous, animal ID 61, Study Group 1, IV 20 min infusion, ZA […], rHuPH20 0 U/mL, read-out: Zoledronic Acid Serum Concentration
[2] = intravenous, animal ID 67, Study Group 1, IV 20 min infusion, ZA […], rHuPH20 0 U/mL, read-out: Zoledronic Acid Serum Concentration

O=P(O)(O)C(O)(Cn1ccnc1)P(=O)(O)O [ZA, 1-hydroxy-2-(1H-imidazol-1-yl)ethylidene-1,1-bisphosphonic acid]
concentration at 2 h [1]: 18.8 ng/mL | concentration at 3 h [1]: 6.1 ng/mL | concentration at 4 h [1]: 3.3 ng/mL | concentration at 0.05 h (intravenous, animal ID 67, Study Group 1, IV 20 min infusion, ZA […], rHuPH20 0 U/mL, time 0.05 h, read-out: Zoledronic Acid Serum Concentration): 288 ng/mL | concentration at 0.333 h (intravenous, animal ID 67, Study Group 1, IV 20 min infusion, ZA […], rHuPH20 0 U/mL, time 0.333 h, read-out: Zoledronic Acid Serum Concentration): 556 ng/mL | concentration at 0.5 h (intravenous, animal ID 67, Study Group 1, IV 20 min infusion, ZA […], rHuPH20 0 U/mL, time 0.5 h, read-out: Zoledronic Acid Serum Concentration): 246 ng/mL | concentration at 1 h (intravenous, animal ID 67, Study Group 1, IV 20 min infusion, ZA […], rHuPH20 0 U/mL, time 1 h, read-out: Zoledronic Acid Serum Concentration): 77.8 ng/mL | concentration at 2 h [2]: 16.6 ng/mL | concentration at 3 h [2]: 6.67 ng/mL | concentration at 4 h [2]: 3.35 ng/mL | clearance (iv, absolute clearance by non-compartmental analysis of the IV dose (from Table 13), used for Study Groups 2 and 3, read-out: Serum CL (converted)): 7.34 mL/min/kg | clearance (iv, ZA […] 20-min IV infusion, individual pigs 57, 61, 67, read-out: CL (converted)): 6.76 mL/min/kg | Tmax (iv, ZA […] 20-min IV infusion, individual pigs 57, 61, 67, read-out: Tmax): 15 min | half-life (iv, ZA […] 20-min IV infusion, individual pigs 57, 61, 67, read-out: T½ λz (converted)): 37.8 min | Vd (iv, ZA […] 20-min IV infusion, individual pigs 57, 61, 67, read-out: Vss): 0.104 L/kg | Vd (iv, ZA […] 20-min IV infusion, individual pigs 57, 61, 67, read-out: Vz): 0.371 L/kg | clearance (iv, ZA […] 20-min IV infusion, n=3, read-out: CL, mean (converted)): 7.34 mL/min/kg | clearance (iv, ZA […] 20-min IV infusion, n=3, read-out: CL, median (converted)): 7.36 mL/min/kg | Tmax (iv, ZA […] 20-min IV infusion, n=3, read-out: Tmax, mean): 15 min | Tmax (iv, ZA […] 20-min IV infusion, n=3, read-out: Tmax, median): 15 min | half-life (iv, ZA […] 20-min IV infusion, n=3, read-out: T½ λz, mean (converted)): 43.2 ± 4.8 min | half-life (iv, ZA […] 20-min IV infusion, n=3, read-out: T½ λz, median (converted)): 44.4 min | Vd (iv, ZA […] 20-min IV infusion, n=3, read-out: Vss, mean): 0.123 L/kg | Vd (iv, ZA […] 20-min IV infusion, n=3, read-out: Vss, median): 0.131 L/kg | Vd (iv, ZA […] 20-min IV infusion, n=3, read-out: Vz, mean): 0.458 ± 0.0759 L/kg | Vd (iv, ZA […] 20-min IV infusion, n=3, read-out: Vz, median): 0.498 L/kg | CL/F (sc, pig 59, SC ZA […], 100 mL over 16 min, no rHuPH20, read-out: CL/F (converted)): 7.97 mL/min/kg | Tmax (sc, pig 59, SC ZA […], 100 mL over 16 min, no rHuPH20, read-out: Tmax): 20 min | half-life (sc, pig 59, SC ZA […], 100 mL over 16 min, no rHuPH20, read-out: T½ λz (converted)): 66 min | Vd/F (sc, pig 59, SC ZA […], 100 mL over 16 min, no rHuPH20, read-out: Vss/F): 0.617 L/kg | Vd/F (sc, pig 59, SC ZA […], 100 mL over 16 min, no rHuPH20, read-out: Vz/F): 0.76 L/kg | CL/F (sc, pig 60, SC ZA […], 100 mL over 16 min, no rHuPH20, read-out: CL/F (converted)): 6.97 mL/min/kg | bioavailability (sc, pig 60, SC ZA […], 100 mL over 16 min, no rHuPH20, read-out: SC Bioavailability (0-1 h)): 55.5% | bioavailability (sc, pig 60, SC ZA […], 100 mL over 16 min, no rHuPH20, read-out: SC Bioavailability (0-8 h)): 105% | Tmax (sc, pig 60, SC ZA […], 100 mL over 16 min, no rHuPH20, read-out: Tmax): 20 min | half-life (sc, pig 60, SC ZA […], 100 mL over 16 min, no rHuPH20, read-out: T½ λz (converted)): 52.2 min | Vd/F (sc, pig 60, SC ZA […], 100 mL over 16 min, no rHuPH20, read-out: Vss/F): 0.526 L/kg | Vd/F (sc, pig 60, SC ZA […], 100 mL over 16 min, no rHuPH20, read-out: Vz/F): 0.524 L/kg | CL/F (sc, pig 62, SC ZA […], 50 mL over 8 min, no rHuPH20, read-out: CL/F (converted)): 10.2 mL/min/kg | bioavailability (sc, pig 62, SC ZA […], 50 mL over 8 min, no rHuPH20, read-out: SC Bioavailability (0-1 h)): 54% | bioavailability (sc, pig 62, SC ZA […], 50 mL over 8 min, no rHuPH20, read-out: SC Bioavailability (0-8 h)): 71.9% | Tmax (sc, pig 62, SC ZA […], 50 mL over 8 min, no rHuPH20, read-out: Tmax): 10 min | half-life (sc, pig 62, SC ZA […], 50 mL over 8 min, no rHuPH20, read-out: T½ λz (converted)): 58.2 min | Vd/F (sc, pig 62, SC ZA […], 50 mL over 8 min, no rHuPH20, read-out: Vss/F): 0.634 L/kg | Vd/F (sc, pig 62, SC ZA […], 50 mL over 8 min, no rHuPH20, read-out: Vz/F): 0.852 L/kg | CL/F (sc, pig 69, SC ZA […], 25 mL over 4 min, no rHuPH20, read-out: CL/F (converted)): 9.28 mL/min/kg | bioavailability (sc, pig 69, SC ZA […], 25 mL over 4 min, no rHuPH20, read-out: SC Bioavailability (0-1 h)): 56.9% | bioavailability (sc, pig 69, SC ZA […], 25 mL over 4 min, no rHuPH20, read-out: SC Bioavailability (0-8 h)): 78.8% | Tmax (sc, pig 69, SC ZA […], 25 mL over 4 min, no rHuPH20, read-out: Tmax): 10 min | half-life (sc, pig 69, SC ZA […], 25 mL over 4 min, no rHuPH20, read-out: T½ λz (converted)): 60.6 min | Vd/F (sc, pig 69, SC ZA […], 25 mL over 4 min, no rHuPH20, read-out: Vss/F): 0.652 L/kg | Vd/F (sc, pig 69, SC ZA […], 25 mL over 4 min, no rHuPH20, read-out: Vz/F): 0.811 L/kg | CL/F (sc, pig 70, SC ZA […], 10 mL over 1.6 min, no rHuPH20, read-out: CL/F (converted)): 7.69 mL/min/kg | bioavailability (sc, pig 70, SC ZA […], 10 mL over 1.6 min, no rHuPH20, read-out: SC Bioavailability (0-1 h)): 66.5% | bioavailability (sc, pig 70, SC ZA […], 10 mL over 1.6 min, no rHuPH20, read-out: SC Bioavailability (0-8 h)): 95.1% | Tmax (sc, pig 70, SC ZA […], 10 mL over 1.6 min, no rHuPH20, read-out: Tmax): 10 min | half-life (sc, pig 70, SC ZA […], 10 mL over 1.6 min, no rHuPH20, read-out: T½ λz (converted)): 85.2 min | Vd/F (sc, pig 70, SC ZA […], 10 mL over 1.6 min, no rHuPH20, read-out: Vss/F): 0.615 L/kg | Vd/F (sc, pig 70, SC ZA […], 10 mL over 1.6 min, no rHuPH20, read-out: Vz/F): 0.947 L/kg | CL/F (sc, SC ZA […], no rHuPH20 (Study Group 2), n=4, read-out: CL/F, mean (converted)): 8.52 mL/min/kg | CL/F (sc, SC ZA […], no rHuPH20 (Study Group 2), n=4, read-out: CL/F, median (converted)): 8.48 mL/min/kg | bioavailability (sc, SC ZA […], no rHuPH20 (Study Group 2), n=4, read-out: SC Bioavailability (0-1 h), mean): 58.2% | bioavailability (sc, SC ZA […], no rHuPH20 (Study Group 2), n=4, read-out: SC Bioavailability (0-1 h), median): 56.2%

Source: patent US20090311237A1, “Combination therapy using a soluble hyaluronidase and a bisphosphonate” (priority 2008, published 2009)
